{"source": "patent US20060166189A1", "about": "“Methods for detecting invasion of a cell” (priority 2002, published 2006)", "tested_on": "HeLa cells", "assay_type": "cell-based", "data": [{"substance": "cytosine arabinose [Ara C]", "values": [{"measurement": "effect on β-galactosidase expression from vSC8 (late vaccinia promoter P11)", "result": "completely blocked"}]}]}
